According to patent US20250270209A1 (INTERLINE THERAPEUTICS, INC., priority 2022, published 2025):

Experiments:
LRRK2 wild type enzyme = LRRK2 wild type enzyme (Homo sapiens, UniProt Q5S007); experiment: Biochemical Assay: LRRK2 TR-FRET (LanthaScreen) kinase assay with LRRKtide substrate; details: LRRK2 Inhibition, Table 8
Outline: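 TR-FRET detection (Tb-labelled phospho-LRRKtide antibody, EDTA stop, 30 min) followed a 120 min, 23 °C reaction of 3 nM wild-type human LRRK2 with LRRKtide (400 nM) and ATP (25 μM) in Tris pH 8.0. Compounds: 11-point 3-fold series from 10 μM, 15 min enzyme preincubation.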

[1] = target: T1, wild type LRRK2 overexpressed in recombinant HEK-293T cells (Homo sapiens, UniProt Q5S007); experiment: pS935 LRRK2 Cell Assay (HTRF, phospho-LRRK2 Ser935); type: cell-based; details: LRRK2 Inhibition, Table 8, 2 hours compound incubation
T1 construct: host or cells: HEK293T (transient transfection with pCMV-LRRK2 WT plasmid)
T1 sequence (Q5S007 whole entry): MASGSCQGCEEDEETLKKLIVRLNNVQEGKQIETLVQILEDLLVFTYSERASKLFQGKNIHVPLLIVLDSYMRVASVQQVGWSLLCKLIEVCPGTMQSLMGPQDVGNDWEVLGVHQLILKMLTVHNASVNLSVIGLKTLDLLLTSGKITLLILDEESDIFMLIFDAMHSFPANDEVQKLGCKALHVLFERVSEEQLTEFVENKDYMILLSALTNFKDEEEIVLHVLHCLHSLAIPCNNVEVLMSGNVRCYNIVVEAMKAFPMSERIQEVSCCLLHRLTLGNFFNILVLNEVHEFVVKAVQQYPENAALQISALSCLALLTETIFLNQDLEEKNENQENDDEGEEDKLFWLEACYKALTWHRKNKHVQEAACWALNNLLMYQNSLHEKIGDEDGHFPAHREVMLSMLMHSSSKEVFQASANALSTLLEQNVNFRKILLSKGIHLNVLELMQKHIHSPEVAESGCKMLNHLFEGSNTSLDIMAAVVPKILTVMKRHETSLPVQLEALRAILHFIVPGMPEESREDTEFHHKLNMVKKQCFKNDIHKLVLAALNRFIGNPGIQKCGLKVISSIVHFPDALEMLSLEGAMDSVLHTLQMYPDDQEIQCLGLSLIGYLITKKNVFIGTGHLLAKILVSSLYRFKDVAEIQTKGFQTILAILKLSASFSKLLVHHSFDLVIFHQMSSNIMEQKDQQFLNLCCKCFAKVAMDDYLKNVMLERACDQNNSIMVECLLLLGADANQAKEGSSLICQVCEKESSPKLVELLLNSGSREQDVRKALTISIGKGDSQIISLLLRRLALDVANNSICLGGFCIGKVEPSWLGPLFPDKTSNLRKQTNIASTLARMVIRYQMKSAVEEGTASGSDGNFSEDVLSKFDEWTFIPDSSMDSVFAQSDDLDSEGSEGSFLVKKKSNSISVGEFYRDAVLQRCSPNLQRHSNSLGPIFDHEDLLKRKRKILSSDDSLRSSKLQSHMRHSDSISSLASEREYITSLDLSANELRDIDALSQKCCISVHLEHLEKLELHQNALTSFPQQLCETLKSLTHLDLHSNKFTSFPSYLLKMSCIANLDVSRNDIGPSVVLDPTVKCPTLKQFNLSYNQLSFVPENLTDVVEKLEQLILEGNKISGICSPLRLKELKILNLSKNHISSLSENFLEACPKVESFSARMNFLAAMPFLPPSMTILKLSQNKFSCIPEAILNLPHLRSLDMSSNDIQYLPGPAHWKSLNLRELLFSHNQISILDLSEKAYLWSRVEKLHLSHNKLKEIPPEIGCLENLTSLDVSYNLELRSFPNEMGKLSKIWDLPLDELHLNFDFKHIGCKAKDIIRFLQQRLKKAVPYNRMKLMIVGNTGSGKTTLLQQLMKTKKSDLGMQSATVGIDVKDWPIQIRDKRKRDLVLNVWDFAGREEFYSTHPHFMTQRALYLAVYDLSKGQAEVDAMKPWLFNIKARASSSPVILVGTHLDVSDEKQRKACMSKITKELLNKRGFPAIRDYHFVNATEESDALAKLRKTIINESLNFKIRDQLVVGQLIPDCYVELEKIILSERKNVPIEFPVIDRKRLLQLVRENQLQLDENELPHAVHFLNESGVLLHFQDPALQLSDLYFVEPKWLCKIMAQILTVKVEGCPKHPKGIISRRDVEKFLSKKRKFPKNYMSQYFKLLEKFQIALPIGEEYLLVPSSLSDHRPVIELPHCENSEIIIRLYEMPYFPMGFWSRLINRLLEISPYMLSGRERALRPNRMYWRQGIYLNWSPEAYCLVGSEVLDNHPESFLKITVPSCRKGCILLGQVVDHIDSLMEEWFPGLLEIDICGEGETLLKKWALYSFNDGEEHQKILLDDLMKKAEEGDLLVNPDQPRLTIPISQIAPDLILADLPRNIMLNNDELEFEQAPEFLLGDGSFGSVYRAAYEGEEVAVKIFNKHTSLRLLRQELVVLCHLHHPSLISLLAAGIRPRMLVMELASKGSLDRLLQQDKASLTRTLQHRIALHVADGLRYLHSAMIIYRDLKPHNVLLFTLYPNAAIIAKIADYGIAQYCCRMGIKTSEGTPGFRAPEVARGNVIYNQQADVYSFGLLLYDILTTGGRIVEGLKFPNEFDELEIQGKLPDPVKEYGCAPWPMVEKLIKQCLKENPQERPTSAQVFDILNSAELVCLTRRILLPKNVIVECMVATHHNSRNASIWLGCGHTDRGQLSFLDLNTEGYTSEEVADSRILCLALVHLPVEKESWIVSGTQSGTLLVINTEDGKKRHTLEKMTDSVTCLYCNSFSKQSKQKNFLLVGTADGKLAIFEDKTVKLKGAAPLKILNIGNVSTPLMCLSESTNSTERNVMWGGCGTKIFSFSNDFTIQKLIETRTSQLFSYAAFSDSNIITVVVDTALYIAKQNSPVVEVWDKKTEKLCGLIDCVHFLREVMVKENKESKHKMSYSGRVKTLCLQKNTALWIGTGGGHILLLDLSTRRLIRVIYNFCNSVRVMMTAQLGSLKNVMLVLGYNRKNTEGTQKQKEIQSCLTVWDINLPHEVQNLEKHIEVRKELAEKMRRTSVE
Outline: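 Phospho-Ser935 LRRK2 measured by two-antibody HTRF (Eu-cryptate donor, d2 acceptor; 665/615 nm ratio) after overnight detection at 23° C. Before lysis, transiently LRRK2-transfected HEK-293T cells were exposed 2 h at 37° C to a 9-point, 3-fold series from 10 μM, with DMSO at 0.2%.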

LRRK2 wild type enzyme, sequence (Q5S007 whole entry): as above

| SMILES | IC50 (LRRK2 wild type enzyme) [nM] | IC50 [1] [nM] |
| --- | --- | --- |
| C[C@@H]1C[C@H](n2c(C3CC(=O)N(Cc4cnn(C)c4)C3)nc3cnc4ccc(C#N)cc4c32)CCO1 (mixture of isomers) [Compound 58, 2-[(3RS)-1-[(1-methyl-1H-pyrazol-4-yl)methyl]-5-oxopyrrolidin-3-yl]-1-[(2R,4R)-2-methyloxan-4-yl]-1H-imidazo[4,5-c]quinoline-8-carbonitrile] | 1.6 | 931 |
| C[C@@H]1C[C@H](n2c(CC(=O)Nc3cn(C)ccc3=O)nc3cnc4ccc(C#N)cc4c32)CCO1 [Compound 234, N-(1-methyl-4-oxo-1,4-dihydro-3-pyridyl){3-[(2R,4R)-2-methyltetrahydro-2H-pyran-4-yl]-12-cyano-3,5,8-triazatricyclo[7.4.0.0^2,6]trideca-1,4,6,8,10,12-hexaen-4-yl}acetamide] | 0.659 | 407 |
| C[C@@H]1C[C@H](n2c(CC(=O)N[C@H](C)c3ccccn3)nc3cnc4ccc(C#N)cc4c32)CCO1 [Compound 190, 2-{8-cyano-1-[(2R,4R)-2-methyloxan-4-yl]-1H-imidazo[4,5-c]quinolin-2-yl}-N-[(1R)-1-(pyridin-2-yl)ethyl]acetamide] | 0.696 | 18.7 |
| C[C@@H]1C[C@H](n2c(CC(=O)Nc3cc(C(C)(C)F)no3)nc3cnc4ccc(C#N)cc4c32)CCO1 [Compound 341, N-[3-(1-fluoro-1-methylethyl)-5-isoxazolyl]{3-[(2R,4R)-2-methyltetrahydro-2H-pyran-4-yl]-12-cyano-3,5,8-triazatricyclo[7.4.0.0^2,6]trideca-1(9),2(6),4,7,10,12-hexaen-4-yl}acetamide] | 0.423 | 8.13 |
| C[C@@H]1C[C@H](n2c(CC(=O)Nc3cnoc3)nc3cnc4ccc(Cl)cc4c32)CCO1 [Compound 313] | 0.722 | 7.09 |
| C[C@@H]1C[C@H](n2c(CC3CN(C(=O)OC(C)(C)C)C3)nc3cnc4ccc(C#N)cc4c32)CCO1 [Compound 73, tert-butyl 3-({8-cyano-1-[(2R,4R)-2-methyloxan-4-yl]-1H-imidazo[4,5-c]quinolin-2-yl}methyl)azetidine-1-carboxylate] | 3.88 | 251 |
| N#Cc1ccc2ncc3nc(CC(=O)NCC4CC4)n(C4CCOCC4)c3c2c1 [Compound 343, N-cyclopropylmethyl{12-cyano-3-(tetrahydro-2H-pyran-4-yl)-3,5,8-triazatricyclo[7.4.0.0^2,6]trideca-1,4,6,8,10,12-hexaen-4-yl}acetamide] | 2.81 | 135 |
| C[C@@H]1C[C@H](n2c(CC(=O)NCC3CCC3)nc3cnc4ccc(C#N)cc4c32)CCO1 [Compound 89, 2-{8-cyano-1-[(2R,4R)-2-methyloxan-4-yl]-1H-imidazo[4,5-c]quinolin-2-yl}-N-(cyclobutylmethyl)acetamide] | 0.589 | 34 |
| C[C@@H]1C[C@H](n2c(CC(=O)NC3CCOCC3)nc3cnc4ccc(C#N)cc4c32)CCO1 [Compound 4, 2-{8-cyano-1-[(2R,4R)-2-methyloxan-4-yl]-1H-imidazo[4,5-c]quinolin-2-yl}-N-(oxan-4-yl)acetamide] | 0.551 | 57.5 |
| COc1ncc(NC(=O)Cc2nc3cnc4ccc(C#N)cc4c3n2[C@@H]2CCO[C@H](C)C2)c(C2CC2)n1 [Compound 278, N-(4-cyclopropyl-2-methoxy-5-pyrimidinyl){3-[(2R,4R)-2-methyltetrahydro-2H-pyran-4-yl]-12-cyano-3,5,8-triazatricyclo[7.4.0.0^2,6]trideca-1,4,6,8,10,12-hexaen-4-yl}acetamide] | 0.418 | 2 |
| C[C@@H]1C[C@H](n2c(CC(=O)Nc3cnn(C4CC4)c3)nc3cnc4ccc(C#N)cc4c32)CCO1 [Compound 307, N-(1-cyclopropyl-4-pyrazolyl){3-[(2R,4R)-2-methyltetrahydro-2H-pyran-4-yl]-12-cyano-3,5,8-triazatricyclo[7.4.0.0^2,6]trideca-1(13),2(6),4,7,9,11-hexaen-4-yl}acetamide] | 0.683 | 17.2 |
| C[C@@H]1C[C@H](n2c(CNc3ncccn3)nc3cnc4ccc(C#N)cc4c32)CCO1 [Compound 105, 1-[(2R,4R)-2-methyloxan-4-yl]-2-{[(pyrimidin-2-yl)amino]methyl}-1H-imidazo[4,5-c]quinoline-8-carbonitrile] | 3.5 | 240 |
| CC(C)NC(=O)Cc1nc2cnc3ccc(C#N)cc3c2n1[C@@H]1CCO[C@H](C)C1 [Compound 14, 2-{8-cyano-1-[(2R,4R)-2-methyloxan-4-yl]-1H-imidazo[4,5-c]quinolin-2-yl}-N-(propan-2-yl)acetamide] | 7.01 | 43.7 |
| C[C@@H]1C[C@H](n2c(CC(=O)NC[C@@H]3CCCO3)nc3cnc4ccc(C#N)cc4c32)CCO1 [Compound 154, 2-{8-cyano-1-[(2R,4R)-2-methyloxan-4-yl]-1H-imidazo[4,5-c]quinolin-2-yl}-N-{[(2S)-oxolan-2-yl]methyl}acetamide] | 0.674 | 39.2 |
| C[C@@H]1C[C@H](n2c(C3CC(=O)N(C4CCOCC4)C3)nc3cnc4ccc(C#N)cc4c32)CCO1 (mixture of isomers) [Compound 64, 1-[(2R,4R)-2-methyloxan-4-yl]-2-[1-(oxan-4-yl)-5-oxopyrrolidin-3-yl]-1H-imidazo[4,5-c]quinoline-8-carbonitrile] | 3.71 | 313 |
| C[C@@H]1C[C@H](n2c(CC(=O)NCC3COC3)nc3cnc4ccc(C#N)cc4c32)CCO1 [Compound 177, 2-{8-cyano-1-[(2R,4R)-2-methyloxan-4-yl]-1H-imidazo[4,5-c]quinolin-2-yl}-N-[(oxetan-3-yl)methyl]acetamide] | 0.524 | 124 |
| C[C@@H]1C[C@H](n2c(CC(=O)Nc3ccc(Cl)nc3)nc3cnc4ccc(C#N)cc4c32)CCO1 [Compound 297, N-(6-chloro-3-pyridyl){3-[(2R,4R)-2-methyltetrahydro-2H-pyran-4-yl]-12-cyano-3,5,8-triazatricyclo[7.4.0.0^2,6]trideca-1,4,6,8,10,12-hexaen-4-yl}acetamide] | 0.225 | 3.99 |
| C[C@@H]1C[C@H](n2c(CC(=O)NC3CC3(F)F)nc3cnc4ccc(C#N)cc4c32)CCO1 (stereo partly drawn) [Compound 288, N-2,2-difluorocyclopropyl{3-[(2R,4R)-2-methyltetrahydro-2H-pyran-4-yl]-12-cyano-3,5,8-triazatricyclo[7.4.0.0^2,6]trideca-1,4,6,8,10,12-hexaen-4-yl}acetamide] | 0.642 | 39 |
| C[C@@H]1C[C@H](n2c(CC(=O)Nc3nccnc3Cl)nc3cnc4ccc(C#N)cc4c32)CCO1 [Compound 308, N-(3-chloro-2-pyrazinyl){3-[(2R,4R)-2-methyltetrahydro-2H-pyran-4-yl]-12-cyano-3,5,8-triazatricyclo[7.4.0.0^2,6]trideca-1(9),2(6),4,7,10,12-hexaen-4-yl}acetamide] | 1.25 | 18.6 |
| C[C@@H]1C[C@H](n2c([C@@H]3CCCN(C(=O)C4CC4)C3)nc3cnc4ccc(C#N)cc4c32)CCO1 [Compound 28, 2-[(3R)-1-cyclopropanecarbonylpiperidin-3-yl]-1-[(2R,4R)-2-methyloxan-4-yl]-1H-imidazo[4,5-c]quinoline-8-carbonitrile] | 12.3 | 773 |
| C[C@@H]1C[C@H](n2c([C@H]3CN(c4cnn(C)c4)C(=O)O3)nc3cnc4ccc(C#N)cc4c32)CCO1 [Compound 124, 2-[(5R)-3-(1-methyl-1H-pyrazol-4-yl)-2-oxo-1,3-oxazolidin-5-yl]-1-[(2R,4R)-2-methyloxan-4-yl]-1H-imidazo[4,5-c]quinoline-8-carbonitrile] | 0.706 | 50.9 |
| C[C@@H]1C[C@H](n2c(CC(=O)Nc3cnccc3C#N)nc3cnc4ccc(C#N)cc4c32)CCO1 [Compound 271, N-(4-cyano-3-pyridyl){3-[(2R,4R)-2-methyltetrahydro-2H-pyran-4-yl]-12-cyano-3,5,8-triazatricyclo[7.4.0.0^2,6]trideca-1,4,6,8,10,12-hexaen-4-yl}acetamide] | 0.643 | 8.43 |
| Cc1ccc2ncc3nc(CC(=O)NC4CC4)n([C@@H]4CCO[C@H](C)C4)c3c2c1 [Compound 191, N-cyclopropyl-2-{8-methyl-1-[(2R,4R)-2-methyloxan-4-yl]-1H-imidazo[4,5-c]quinolin-2-yl}acetamide] | 0.961 | 65.6 |
| C[C@@H]1C[C@H](n2c([C@H]3CCN(S(=O)(=O)C4CC4)C3)nc3cnc4ccc(C#N)cc4c32)CCO1 [Compound 25, 2-[(3S)-1-(cyclopropanesulfonyl)pyrrolidin-3-yl]-1-[(2R,4R)-2-methyloxan-4-yl]-1H-imidazo[4,5-c]quinoline-8-carbonitrile] | 6.13 | 563 |
| C[C@@H]1C[C@H](n2c(C3CC(=O)N(c4ccnn4C)C3)nc3cnc4ccc(C#N)cc4c32)CCO1 (stereo partly drawn) [Compound 103, 2-[1-(1-methyl-1H-pyrazol-5-yl)-5-oxopyrrolidin-3-yl]-1-[(2R,4R)-2-methyloxan-4-yl]-1H-imidazo[4,5-c]quinoline-8-carbonitrile] | 1.98 | 400 |
| C[C@@H]1C[C@H](n2c(CC(=O)Nc3cnn(C)c3)nc3cnc4ccc(Cl)cc4c32)CCO1 [Compound 193, 2-{8-chloro-1-[(2R,4R)-2-methyloxan-4-yl]-1H-imidazo[4,5-c]quinolin-2-yl}-N-(1-methyl-1H-pyrazol-4-yl)acetamide] | 0.261 | 5.59 |
